Key:
[1] = Activity against alternating current-induced arrhythmia in guinea pig left atrium at 1 uM; type: functional, Cavia porcellus, Cardiac atrium
Aorta = test: Inhibition of calcium-induced contraction of potassium ion depolarized guinea pig aortic strips at 50 uM; type: functional; settings: Cavia porcellus
[2] = Negative inotropic activity assessed as decrease in developed tension in isolated guinea pig left atrium; type: functional, tissue-based; settings: Cavia porcellus, Cardiac atrium
[3] = Negative chronotropic activity assessed as decrease in atrial rate in isolated guinea pig right atrium at 5 uM relative to control; type: functional, Cavia porcellus, Cardiac atrium; parameters: scale not given: the % may be the effect or the level left
[4] = Negative inotropic activity assessed as decrease in developed tension in isolated guinea pig left atrium at 10 uM relative to control; type: functional, Cavia porcellus, Cardiac atrium; parameters: scale not given: the % may be the effect or the level left

EC50 [2]: 0.6 µM
SMILES: Cc1cc([N+](=O)[O-])cc(C)c1OC[C@H]1CCCN2CCCC[C@H]12
Activity [1]: 23%
inhibition at 50 µM (Aorta): 19%
Activity [3]: 25%
Activity [4]: 83%

Reference: ChEMBL document CHEMBL1139835, “Novel quinolizidinyl derivatives as antiarrhythmic agents” (J Med Chem, 2007)
